# Residues, ends and D or L forms follow the SMILES beside them.
# Test system: E. coli ATCC25922
# Assay type: cell-based, Escherichia coli
# Method: The minimal inhibitory concentration (MIC) was determined according to a previously described method ([Chou et al., 2016]). Bacteria were cultured overnight to mid-log phase in MHB at 37°C and then diluted to give final concentrations ranging from 2 × 10^5 to 7 × 10^5 CFU/mL. Then, 50 μL of serial twofold dilutions of the peptides were added to each well in 96-well microtiter plates with a mixed solution containing 0.01% acetic acid and 0.2% bovine serum albumin (BSA, Sigma) was used to dissolve and dilute the peptides. Then, equal amounts of bacterial aliquots were incubated with the above peptide solution for 18-24 h at 37°C. The experiment was performed in triplicate using three replicates for each peptide and each bacterium. The broth was employed as a negative control and the broth with microbial cells was used as a positive control. The lowest concentration of peptide that prevented visible turbidity was defined as the MIC. The condition sensitivity of peptides was tested in an MIC assay in different environments, including salt sensitivity, thermal sensitivity and different pH values similar to our previous method ([[…] et al., 2008]; [Ma et al., 2012]). […] For the heat resistance experiments, the peptides were incubated at 100°C for 30 min and cooled on ice for 10 min. […] The determination methods for these MIC assays were same as described above. To test the effects of serum on the antimicrobial activities of the peptides, human serum was dissolved in MHB to reach final concentrations of 25 and 50%. The determination methods for these MIC assays were same as described above.
compound,measurement,setting,value
CC[C@H](C)[C@H](N)C(=O)N[C@@H](Cc1c[nH]cn1)C(=O)N[C@@H](CCCCN)C(=O)N[C@@H](Cc1ccccc1)C(=O)N[C@@H](Cc1c[nH]c2ccccc12)C(=O)N[C@@H](CCCNC(=N)N)C(=O)N[C@@H](CS)C(=O)N[C@@H](CCCNC(=N)N)C(=O)N[C@@H](CCCNC(=N)N)C(=O)N[C@@H](CCCNC(=N)N)C(=O)N[C@@H](Cc1ccccc1)C(=O)N[C@@H](CS)C(=O)N[C@@H](CCCNC(=N)N)C(=O)N[C@@H](Cc1c[nH]c2ccccc12)C(=O)N[C@@H](Cc1ccccc1)C(=O)N[C@@H](CCCCN)C(=O)N[C@@H](Cc1c[nH]cn1)C(=O)N[C@H](C(N)=O)[C@@H](C)CC [PQ] (H-IHKFWRCRRRFCRWFKHI-NH2; N-terminus assumed),MIC,ATCC25922,16 µM
same,"MIC, CaCl2",ATCC25922,32 µM
same,"MIC, Control",ATCC25922,16 µM
same,"MIC, FeCl3",ATCC25922,8 µM
same,"MIC, Heat (100°C)",ATCC25922,32 µM
same,"MIC, KCl",ATCC25922,4 µM
same,"MIC, MgCl2",ATCC25922,4 µM
same,"MIC, NH4Cl",ATCC25922,4 µM
same,"MIC, NaCl",ATCC25922,8 µM
same,"MIC, ZnCl2",ATCC25922,4 µM
same,"MIC, pH 4.0","ATCC25922, pH 4",8 μM
same,"MIC, pH 6.0","ATCC25922, pH 6",8 μM
same,"MIC, pH 8.0","ATCC25922, pH 8",4 μM
same,"MIC, pH 10.0","ATCC25922, pH 10",4 μM

# Reference: publication PMC6277555, “Short Symmetric-End Antimicrobial Peptides Centered on β-Turn Amino Acids Unit Improve Selectivity and Stability” (Frontiers in Microbiology, 2018)
